# Laboratory results from article PMC10762035, “Molecular basis of human trace amine-associated receptor 1 activation” (Nature Communications, 2024).
# Residue numbers refer to the chain shown, from its start. “And” between values parts separate entries of the source, which are not always exact repeats. Identical values can stand only once.
# Assays:
# Type in all cases: cell-based
# [1] = target: T1, hTA1 I290Y (Homo sapiens, UniProt Q96RJ0, I290Y); experiment: GloSensor cAMP accumulation assay, I290Y mutant; details: for Normalized Luminescence Counts for Concentration Response Curves: I120Y, log[Agonist], single replicates; for cAMP accumulation response, normalized (concentration-response source data, single replicate values): hTA1 I290Y (N=3), log[Compound];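 for cAMP accumulation response, normalized (concentration-response source data, single replicate values): normalized to the maximum response of β-PEA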
# T1 construct: expressed in transfected cells; host or cells: HEK293T
# T1 sequence (Q96RJ0 1-339 I290Y): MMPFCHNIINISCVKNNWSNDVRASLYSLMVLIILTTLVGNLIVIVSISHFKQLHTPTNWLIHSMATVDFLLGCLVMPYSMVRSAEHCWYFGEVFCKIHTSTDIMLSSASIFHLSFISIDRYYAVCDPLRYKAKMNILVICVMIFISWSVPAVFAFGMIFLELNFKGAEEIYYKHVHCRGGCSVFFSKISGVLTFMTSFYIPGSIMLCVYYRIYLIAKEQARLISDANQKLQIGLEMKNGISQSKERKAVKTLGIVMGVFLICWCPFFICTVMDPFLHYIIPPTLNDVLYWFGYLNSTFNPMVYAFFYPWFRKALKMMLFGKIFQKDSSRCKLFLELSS
# [2] = target: T2, hTA1 (Homo sapiens, UniProt Q96RJ0); experiment: Screen of 89 aminergic compounds at 10 µM, cAMP accumulation in HEK293T cells; details: 10 µM of compound; HEK293T; threshold log2-fold change of 2;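 note: HEK293T cells co-transfected with hTA1 and GloSensor cAMP reporter, cAMP accumulation detected by luminescence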
# T2 construct: expressed in transfected cells; host or cells: HEK293T
# T2 sequence (Q96RJ0 1-339): T1 sequence (Q96RJ0 1-339 I290Y) with Y290I
# [3] = target: T3, hTA1 b2N (Homo sapiens, UniProt Q96RJ0); experiment: GloSensor cAMP accumulation assay, b2N construct; details: b2N, n=2
# T3 construct: read by me as the first 25 residues of β2AR (N); expressed in transfected cells; host or cells: HEK293T
# [4] = target: T2, hTA1; experiment: GloSensor cAMP accumulation assay, concentration response, wild-type hTA1 in transfected HEK293T cells;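 note: luminescence read after 30 min compound exposure at room temperature in cells preloaded with D-Luciferin, reflecting Gs-driven cAMP rise, efficacy scaled to the maximal β-PEA response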
# T3 sequence (Q96RJ0 with tags, fused parts or gaps): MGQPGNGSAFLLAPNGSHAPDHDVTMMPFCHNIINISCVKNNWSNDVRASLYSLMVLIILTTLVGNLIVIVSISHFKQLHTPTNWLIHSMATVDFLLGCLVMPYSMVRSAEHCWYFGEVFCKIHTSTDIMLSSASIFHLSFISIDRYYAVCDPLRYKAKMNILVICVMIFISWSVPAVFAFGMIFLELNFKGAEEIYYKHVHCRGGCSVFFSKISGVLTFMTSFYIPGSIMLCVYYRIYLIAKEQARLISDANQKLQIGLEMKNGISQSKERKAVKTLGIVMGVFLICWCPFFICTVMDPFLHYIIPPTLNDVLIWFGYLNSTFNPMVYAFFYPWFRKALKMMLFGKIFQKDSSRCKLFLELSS
smiles,measurement,setting,value
"NCCc1ccccc1 [β-PEA, β-phenethylamine]",Normalized Luminescence Counts for Concentration Response Curves,[1]; M -5,106.77 and 91.3809 and 125.546 and 108.456 and 111.021 and 107.357 and 101.946 and 94.0497 and 113.225
same,Normalized Luminescence Counts for Concentration Response Curves,[1]; M -6,87.3796 and 52.2914 and 77.8381 and 75.4765 and 68.8807 and 65.9492 and 71.4902 and 68.1063 and 59.0825
same,Normalized Luminescence Counts for Concentration Response Curves,[1]; M -7,31.0537 and 19.6655 and 31.3615 and 25.6411 and 22.3431 and 26.3739 and 25.2433 and 15.0915 and 12.8355
same,Normalized Luminescence Counts for Concentration Response Curves,[1]; M -8,5.199 (2×) and 2.121 and 24.1753 and 3.655 and 1.823 and 1.556 and -1.828 and -0.7002
same,Normalized Luminescence Counts for Concentration Response Curves,[1]; M -9,-0.341 (2×) and -2.496 and 2.189 and -2.575 and -4.773 and 0.4278 and -1.828 and -2.956
same,Normalized Luminescence Counts for Concentration Response Curves,[1]; M -10,-0.0332 (2×) and -1.88 and -5.873 and -4.407 and -4.773 and 2.684 and -1.828 and -0.7002
same,Normalized Luminescence Counts for Concentration Response Curves,[1]; M -11,0.5824 (2×) and -1.264 and -5.506 and -5.14 and -3.674 and -1.828 (3×)
same,Normalized Luminescence Counts for Concentration Response Curves,[1]; M -12,1.506 and -1.88 and -0.341 and -3.674 and -4.773 and 8.4185 and 1.556 (2×) and 2.684
same,Span ± SEM (Emax normalized to β-PEA),[1]; I290Y,100 ± 3.64
same,pEC50 ± SEM,[1]; I290Y,6.43 ± 0.07
same,ΔEmax values (each mutant value - WT average),[1]; I290Y minus WT average,0
same,"ΔpEC50 values (each mutant value - WT average), Mean",[1]; I290Y minus WT average,-0.6326 and -0.5624 and -0.7969
same,EC50,"[1]; I290Y, read-out: EC50",372 nM
same,"pEC50 values, Mean","[1]; I290Y, single experiments (3 replicates each)",6.461 and 6.531 and 6.297
same,"Emax values, Mean","[1]; I290Y, single experiments (3 replicates each), β-PEA = 100",100
same,"cAMP accumulation response, normalized (concentration-response source data, single replicate values)",[1]; M = -5,106.77 and 91.3809 and 125.546 and 108.456 and 111.021 and 107.357 and 101.946 and 94.0497 and 113.225
same,"cAMP accumulation response, normalized (concentration-response source data, single replicate values)",[1]; M = -5.522,77.8381 and 72.2978 and 82.1471 and 73.6443 and 85.0039 and 85.3703 and 81.642 and 86.1539 and 57.9545
same,"cAMP accumulation response, normalized (concentration-response source data, single replicate values)",[1]; M = -6,87.3796 and 52.2914 and 77.8381 and 75.4765 and 68.8807 and 65.9492 and 71.4902 and 68.1063 and 59.0825
same,"cAMP accumulation response, normalized (concentration-response source data, single replicate values)",[1]; M = -6.522,54.4459 and 35.6706 and 50.4446 and 60.0862 and 56.7882 and 48.7266 and 47.8027 and 37.651 (2×)
same,"cAMP accumulation response, normalized (concentration-response source data, single replicate values)",[1]; M = -7,31.0537 and 19.6655 and 31.3615 and 25.6411 and 22.3431 and 26.3739 and 25.2433 and 15.0915 and 12.8355
same,"cAMP accumulation response, normalized (concentration-response source data, single replicate values)",[1]; M = -7.522,12.5863 and 7.662 and 9.508 and 11.7164 and 13.1822 and 20.5109 and 7.196 and 4.9397 and 3.812
same,"cAMP accumulation response, normalized (concentration-response source data, single replicate values)",[1]; M = -8,5.199 (2×) and 2.121 and 24.1753 and 3.655 and 1.823 and 1.556 and -1.828 and -0.7002
same,"cAMP accumulation response, normalized (concentration-response source data, single replicate values)",[1]; M = -8.522,0.8902 and -1.264 and -0.0332 and -1.109 and -1.842 and -4.04 and 0.4278 and -2.956 and -0.7002
same,"cAMP accumulation response, normalized (concentration-response source data, single replicate values)",[1]; M = -9,-0.341 (2×) and -2.496 and 2.189 and -2.575 and -4.773 and 0.4278 and -1.828 and -2.956
same,"cAMP accumulation response, normalized (concentration-response source data, single replicate values)",[1]; M = -9.522,-0.9566 and -2.803 and -1.264 and -1.109 and -0.7424 and -1.475 and 0.4278 and -4.0841 and -0.7002
same,"cAMP accumulation response, normalized (concentration-response source data, single replicate values)",[1]; M = -10,-0.0332 (2×) and -1.88 and -5.873 and -4.407 and -4.773 and 2.684 and -1.828 and -0.7002
same,"cAMP accumulation response, normalized (concentration-response source data, single replicate values)",[1]; M = -10.522,-0.6488
same,increase of signal over DMSO-treated controls (hTA1 activation),[2],≥ 4 fold
same,Span ± SEM (Emax normalized to β-PEA),[3],100 ± 3.11
same,pEC50 ± SEM,[3],7.59 ± 0.07
same,EC50,[3]; read-out: EC50,25.4 nM
same,"Emax values, Avg","[4]; WT hTA1, Figure 5B, β-PEA = 100, average of the independent experiments",100
same,"Emax values, Mean","[4]; WT hTA1, Figure 5B, β-PEA = 100, each row one independent experiment (3 replicates)",100
same,"pEC50 values, Avg","[4]; WT hTA1, average of the two experiments, Figure 2B source data",7.094
same,"pEC50 values, Mean","[4]; WT hTA1, each line an independent experiment, 3 replicates, Figure 2B source data",7.155 and 7.032
same,"Emax values, Avg","[4]; WT hTA1, β-PEA = 100, average of the two experiments",100
same,"Emax values, Mean","[4]; WT hTA1, β-PEA = 100, each line an independent experiment, 3 replicates",100
same,"Emax values, Avg","[4]; WT, Avg of the two experiments, β-PEA = 100",100
same,"Emax values, Avg","[4]; WT, average of the experiments, β-PEA = 100",100
same,"Emax values, Avg","[4]; WT, average of the two experiments",100
same,"Emax values, Mean","[4]; WT, mean of each independent experiment (3 replicates), β-PEA = 100",100
